Data from patent US6011015A, “Angiotensin II for improving fertilization” (Queen Mary & Westfield College, priority 1994, dated 2000).
Where a name gives a salt, the structure may show the parent alone. One block for each molecule: values may come before it.

Experiments:
Assay type in all cases: cell-based
[1] = tested on: Human sperm; assay: Percentage motility of human sperm, counted from video recordings in a Makler chamber
Method: Human sperm sample were obtained from 12 volunteers and patients attending the Newham Hospital assisted fertility clinic. Samples were suspended in modified minimum essential medium with Earle's salts (MEM) and glutamine and viewed in a Makler chamber using an Olympus inverted microscope fitted with an Olympus ARTF-2 video camera. Fields were recorded on video tape and percentage motility evaluated at 1 min and 5 min. After mixing with MEM alone (unstimulated controls) or with MEM containing 1 nmole/litre angiotensin II amide.
In practice, rigid use of this definition was rarely necessary as sperm were either completely immotile or progressed freely.
A series of six sperm samples, obtained from the same source as Example 1, were mixed either with unmodified MEM, or MEM containing DuP-753 (1 nmole/l).
Percentage motility was estimated in the same way as in Example 1.
(§1) Effect of Angiotensin II on Sperm Velocity Sperm samples were obtained from the same source as Example 1. One series of samples was kept as controls. To a second series Angiotensin II amide (10 nmole/l) was added. A third series was treated with monoclonal antibody to the AT1, receptor before angiotensin was added.
Sperm samples were obtained from the same source as Example 1. One series of samples was kept as controls. A second series was exposed to angiotensin II (1 μmole/l) for five minutes. A third series was exposed to angiotensin II (1 μmole/l) for 5 minutes and then DuP-753 (1 μmole/l) was added.
The percentage of motile sperm was measured using the same method as was used in Example 1.

[2] = tested on: Human sperm; assay: Forward progressive sperm velocity, timed manually across the Makler chamber grid; details: Angiotensin II amide (10 nmole/l); FIG. 3(a)
Method: as §1
Velocity was measured by timing forwardly progressive sperm traversing the grid on the Makler Chamber and timing them manually.

[3] = tested on: Human sperm; assay: Sperm motility by computer system (VCL and ALH); details: angiotensin II amide (1 nmole/l) versus unstimulated controls, over 30 minutes
Method: Sperm samples were obtained from the same source as Example 1. One series of samples was kept as controls. TO a second series angiotensin II amide (1 nmole/l) was added.
Sperm motility was assayed by using a computer system which measures different aspects of sperm motility, namely curvilinear velocity (VCL) and amplitude of lateral head displacement (ALH).

Molecule: angiotensin II (DRVYIHPF; Angiotensin-2; UniProt P01019 25-32, looked up) [octapeptide hormone of the renin-angiotensin system]
- percentage motility after 5 minutes compared with percentage motility after 1 minute ([1]; MEM containing 1 nmole/litre angiotensin II amide, 12 human sperm samples, FIG. 1(b)): significantly different
- percentage of sperm which were motile after 5 minutes compared with the controls ([1]; angiotensin II (1 μmole/l) for five minutes, in most samples, FIG. 4): enhanced
- forward progressive velocity compared with the untreated controls [2]: significantly stimulated

- amplitude of lateral head displacement (ALH) ([3]; FIGS. 7 and 8): stimulates
Molecule: angiotensin II amide
- curvilinear velocity (VCL) ([3]; FIGS. 6 and 8): stimulates

Molecule: CCCCc1nc(Cl)c(CO)n1Cc1ccc(-c2ccccc2-c2nn[nH]n2)cc1 [DuP-753, 2-n-butyl-4-chloro-5-hydroxymethyl-1-[(2'-(1H-tetrazol-5-yl)biphenyl-4-yl)methyl] imidazole, potassium salt, reference compound]
- percentage motility relative to the untreated controls ([1]; MEM containing DuP-753 (1 nmole/l), six sperm samples, FIG. 2): significantly decreased
- effect on the angiotensin II enhancement of the percentage of motile sperm ([1]; angiotensin II (1 μmole/l) for 5 minutes, then DuP-753 (1 μmole/l) added, FIG. 4): generally reduced
